In US8841449B2, “Compounds useful as inhibitors of ATR kinase” (Vertex Pharmaceuticals Incorporated, priority 2011, dated 2014):

Legend:
[1] = Pharmacokinetics (clearance and volume of distribution); assay type: in vivo; details: for clearance / Vd: in vivo, noncompartmental, intravenous (IV) dosing, species not given; for Vd: read-out: Vss (steady state volume of distribution)
Description: Noncompartmental pharmacokinetic parameters can be analyzed using Watson Bioanalytical LIMS (Version 7.4; Thermo Fisher Scientific) from either the blood or plasma samples. The following parameters can be estimated following intravenous (IV) dosing: terminal elimination half-life (T1/2=ln(2)/λz, where λz is the first order rate constant associated with the terminal (log-linear) portion of the curve); the area under the curve (AUClast=area under the curve from the time of dosing to the last measurable concentration); the area under the curve extrapolated to infinity (AUC0-∞=AUClast+Clast/λz). The clearance (Cl; Cl=DoseIV/AUC0-∞); the area under the first moment curve (AUMClast=area under the concentration times time versus time curve from the time of dosing to the last measurable concentration); the area under the first moment curve extrapolated to infinity (AUMC0-∞=AUMClast+Clast×t/λz+Clast/λz^2); the mean residence time (MRT=AUMC0-∞/AUC0-∞); and the steady state volume of distribution (Vdss=MRT×Cl).
Clearance and volume of distribution can also be obtained using methods known to one of skill in the art (see e.g., Handbook of Essential Pharmacokinetics, Pharmacodynamics and Drug Metabolism for Industrial Scientists, Younggil Kwon, pp 18-28 (Noncompartmental Approach)).

[2] = target: T1, ATR kinase (full-length ATR) (Homo sapiens, UniProt Q13535); assay: ATR Inhibition Assay (radioactive-phosphate incorporation); assay type: biochemical; details: Ki(app); 10 μM ATP, 800 μM target peptide, 5 nM full-length ATR, 25° C.
T1 construct: Assays were carried out at 25° C. in the presence of 5 nM full-length ATR
Procedure: Compounds were screened for their ability to inhibit ATR kinase using a radioactive-phosphate incorporation assay. Assays were carried out in a mixture of 50 mM Tris/HCl (pH 7.5), 10 mM MgCl2 and 1 mM DTT. Final substrate concentrations were 10 μM [γ-33P]ATP (3mCi 33P ATP/mmol ATP, Perkin Elmer) and 800 μM target peptide (ASELPASQPQPFSAKKK).
Assays were carried out at 25° C. in the presence of 5 nM full-length ATR. An assay stock buffer solution was prepared containing all of the reagents listed above, with the exception of ATP and the test compound of interest. 13.5 μL of the stock solution was placed in a 96 well plate followed by addition of 2 μL of DMSO stock containing serial dilutions of the test compound (typically starting from a final concentration of 15 μM with 3-fold serial dilutions) in duplicate (final DMSO concentration 7%). The plate was pre-incubated for 10 minutes at 25° C. and the reaction initiated by addition of 15 μL [γ-33P]ATP (final concentration 10 μM).
The reaction was stopped after […] by the addition of 30 μL 0.1M phosphoric acid containing 2 mM ATP. A multiscreen phosphocellulose filter 96-well plate (Millipore, Cat no. MAPHN0B50) was pretreated with 100 μL 0.2M phosphoric acid prior to the addition of 45 μL of the stopped assay mixture. The plate was washed with 5×200 μL 0.2M phosphoric acid. After drying, 100 μL Optiphase ‘SuperMix’ liquid scintillation cocktail (Perkin Elmer) was added to the well prior to scintillation counting (1450 Microbeta Liquid Scintillation Counter, Wallac).
After removing mean background values for all of the data points, Ki(app) data were calculated from non-linear regression analysis of the initial rate data using the Prism software package (GraphPad Prism version 3.0cx for Macintosh, GraphPad Software, San Diego Calif., USA).

T1 sequence (Q13535 whole entry): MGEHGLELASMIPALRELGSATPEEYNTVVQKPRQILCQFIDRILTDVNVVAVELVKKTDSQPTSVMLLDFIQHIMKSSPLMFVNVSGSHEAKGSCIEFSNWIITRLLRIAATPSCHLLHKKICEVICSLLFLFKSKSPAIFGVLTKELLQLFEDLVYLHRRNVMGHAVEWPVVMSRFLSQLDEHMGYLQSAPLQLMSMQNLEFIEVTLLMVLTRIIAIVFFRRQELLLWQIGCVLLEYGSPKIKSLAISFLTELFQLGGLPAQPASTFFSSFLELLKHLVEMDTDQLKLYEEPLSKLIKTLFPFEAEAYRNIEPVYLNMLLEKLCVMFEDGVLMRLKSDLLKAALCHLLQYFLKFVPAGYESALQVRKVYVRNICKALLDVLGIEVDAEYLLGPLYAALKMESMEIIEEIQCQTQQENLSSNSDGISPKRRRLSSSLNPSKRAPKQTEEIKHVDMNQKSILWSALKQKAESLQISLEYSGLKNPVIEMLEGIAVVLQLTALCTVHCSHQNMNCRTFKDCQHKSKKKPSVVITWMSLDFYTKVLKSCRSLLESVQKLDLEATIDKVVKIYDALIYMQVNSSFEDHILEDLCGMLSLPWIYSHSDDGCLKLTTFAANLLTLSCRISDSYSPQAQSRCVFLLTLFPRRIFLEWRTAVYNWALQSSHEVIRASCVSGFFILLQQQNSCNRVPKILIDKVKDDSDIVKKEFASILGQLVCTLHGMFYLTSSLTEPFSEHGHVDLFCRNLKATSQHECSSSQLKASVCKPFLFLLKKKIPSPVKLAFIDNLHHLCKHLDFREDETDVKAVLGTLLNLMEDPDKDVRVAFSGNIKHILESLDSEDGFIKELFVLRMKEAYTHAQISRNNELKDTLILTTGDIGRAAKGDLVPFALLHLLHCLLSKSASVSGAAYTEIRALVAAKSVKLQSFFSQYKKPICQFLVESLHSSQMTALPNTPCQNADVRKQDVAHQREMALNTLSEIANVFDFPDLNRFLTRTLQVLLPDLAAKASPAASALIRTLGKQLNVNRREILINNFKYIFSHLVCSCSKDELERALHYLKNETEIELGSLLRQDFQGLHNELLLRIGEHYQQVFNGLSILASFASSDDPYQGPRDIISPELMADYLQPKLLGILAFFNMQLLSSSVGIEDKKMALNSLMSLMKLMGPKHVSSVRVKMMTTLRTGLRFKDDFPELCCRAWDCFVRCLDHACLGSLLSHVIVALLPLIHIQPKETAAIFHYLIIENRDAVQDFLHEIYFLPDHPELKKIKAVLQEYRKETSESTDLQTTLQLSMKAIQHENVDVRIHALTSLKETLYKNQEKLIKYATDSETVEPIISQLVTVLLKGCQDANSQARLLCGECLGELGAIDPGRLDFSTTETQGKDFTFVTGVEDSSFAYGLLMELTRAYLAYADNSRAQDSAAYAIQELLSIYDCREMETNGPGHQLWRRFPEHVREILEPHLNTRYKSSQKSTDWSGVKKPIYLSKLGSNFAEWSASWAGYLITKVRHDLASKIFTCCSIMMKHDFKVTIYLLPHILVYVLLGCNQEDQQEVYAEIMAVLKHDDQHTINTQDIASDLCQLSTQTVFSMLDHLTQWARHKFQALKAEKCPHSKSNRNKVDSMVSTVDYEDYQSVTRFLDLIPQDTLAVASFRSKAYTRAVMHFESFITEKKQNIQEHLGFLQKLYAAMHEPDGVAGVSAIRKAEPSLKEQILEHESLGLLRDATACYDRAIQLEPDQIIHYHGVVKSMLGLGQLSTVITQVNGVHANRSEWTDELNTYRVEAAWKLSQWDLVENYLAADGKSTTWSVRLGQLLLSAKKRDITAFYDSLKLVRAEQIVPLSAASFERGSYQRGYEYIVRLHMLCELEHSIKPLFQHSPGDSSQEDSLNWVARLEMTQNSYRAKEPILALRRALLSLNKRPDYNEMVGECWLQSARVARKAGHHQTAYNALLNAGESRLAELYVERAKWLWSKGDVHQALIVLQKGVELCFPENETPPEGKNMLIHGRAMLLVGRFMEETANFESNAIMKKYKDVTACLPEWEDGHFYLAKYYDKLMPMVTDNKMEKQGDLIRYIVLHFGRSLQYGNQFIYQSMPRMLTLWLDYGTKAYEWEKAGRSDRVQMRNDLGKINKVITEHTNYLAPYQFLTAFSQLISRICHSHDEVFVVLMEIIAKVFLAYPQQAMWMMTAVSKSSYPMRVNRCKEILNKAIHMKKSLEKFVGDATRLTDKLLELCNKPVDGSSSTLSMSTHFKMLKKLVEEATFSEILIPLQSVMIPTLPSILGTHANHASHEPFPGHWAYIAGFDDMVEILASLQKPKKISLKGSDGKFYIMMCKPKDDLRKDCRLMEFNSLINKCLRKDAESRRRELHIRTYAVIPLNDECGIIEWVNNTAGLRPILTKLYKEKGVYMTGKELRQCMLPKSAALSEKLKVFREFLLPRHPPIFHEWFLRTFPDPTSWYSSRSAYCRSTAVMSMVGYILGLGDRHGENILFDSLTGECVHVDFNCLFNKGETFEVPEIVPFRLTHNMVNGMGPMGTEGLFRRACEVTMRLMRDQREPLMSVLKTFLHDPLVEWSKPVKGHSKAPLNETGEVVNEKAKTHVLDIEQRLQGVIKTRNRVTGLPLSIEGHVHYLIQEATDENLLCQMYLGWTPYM

Structure (SMILES) | Ki [2] [nM] | further results
Cc1ccsc1-c1nnc(-c2nc(-c3ccc(S(=O)(=O)C4CCNCC4)cc3)cnc2N)o1 [Compound A, reference compound] |  | clearance [1]: 34.3 mL/min/kg; Vd [1]: 12.5 L/kg
Cc1ccsc1-c1nnc(-c2nc(-c3ccc(S(=O)(=O)[C@H]4CCCNC4)cc3)cnc2N)o1 [Compound I-15, (S)-3-(5-(3-methylthiophen-2-yl)-1,3,4-oxadiazol-2-yl)-5-(4-(piperidin-3-ylsulfonyl)phenyl)pyrazin-2-amine] | ≤ 5 | 
Cc1ccsc1-c1nnc(-c2nc(-c3ccc(S(=O)(=O)[C@@H]4CCCNC4)cc3)cnc2N)o1 [Compound I-16, (R)-3-(5-(3-methylthiophen-2-yl)-1,3,4-oxadiazol-2-yl)-5-(4-(piperidin-3-ylsulfonyl)phenyl)pyrazin-2-amine] | ≤ 5 | 
Nc1ncc(-c2ccc(S(=O)(=O)C3CCCNC3)cc2)nc1-c1nnc(-c2ccc(C3COCCN3)cc2)o1 (stereo not shown) [Compound I-17, 3-(5-(4-(morpholin-3-yl)phenyl)-1,3,4-oxadiazol-2-yl)-5-(4-(piperidin-3-ylsulfonyl)phenyl)pyrazin-2-amine] | ≤ 5 | 
Nc1ncc(-c2ccc(S(=O)(=O)C3CCCNC3)cc2)nc1-c1nnc(-c2ccccc2)s1 (stereo not shown) [Compound I-18, 3-(5-phenyl-1,3,4-thiadiazol-2-yl)-5-(4-(piperidin-3-ylsulfonyl)phenyl)pyrazin-2-amine] | ≤ 5 | 
Nc1ncc(-c2ccc(S(=O)(=O)C3CCCNC3)cc2)nc1-c1nnc(-c2ccccc2)o1 (stereo not shown) [Compound I-19] | ≤ 5 | 
Nc1ncc(-c2ccc(S(=O)(=O)C3CCCNC3)cc2)nc1-c1cc(-c2ccc(OCCO)cc2)no1 (stereo not shown) [Compound I-20] | 5 to 10 | 
Nc1ncc(-c2ccc(S(=O)(=O)C3CCCNC3)cc2)nc1-c1cc(-c2ccc(CO)cc2)no1 (stereo not shown) [Compound I-21] | 5 to 10 | 
Nc1ncc(-c2ccc(S(=O)(=O)C3CCCNC3)cc2)nc1-c1cc(-c2ccccc2F)no1 (stereo not shown) [Compound I-22] | 10 to 25 | 
COc1ccccc1-c1cc(-c2nc(-c3ccc(S(=O)(=O)C4CCCNC4)cc3)cnc2N)on1 (stereo not shown) [Compound I-23] | 5 to 10 | 
Cc1ccccc1-c1cc(-c2nc(-c3ccc(S(=O)(=O)C4CCCNC4)cc3)cnc2N)on1 (stereo not shown) [Compound I-24] | 10 to 25 | 
Nc1ncc(-c2ccc(S(=O)(=O)C3CCCNC3)cc2)nc1-c1cc(-c2ccccc2Cl)no1 (stereo not shown) [Compound I-25] | 10 to 25 | 
Nc1ncc(-c2ccc(S(=O)(=O)C3CCCNC3)cc2)nc1-c1cc(-c2ccccc2O)no1 (stereo not shown) [Compound I-26] | ≤ 5 | 

Now from value to compound, other results behind:

Ki [2] [nM] | Structure (SMILES) | further results
≤ 5 | Nc1ncc(-c2ccc(S(=O)(=O)C3CCCNC3)cc2)nc1-c1cc(-c2ccccc2)no1 (stereo not shown) [Compound I-1, 3-(3-phenylisoxazol-5-yl)-5-(4-(piperidin-3-ylsulfonyl)phenyl)pyrazin-2-amine] | clearance [1]: 0.9 mL/min/kg; Vd [1]: 0.9 L/kg
≤ 5 | Cc1ccsc1-c1cc(-c2nc(-c3ccc(S(=O)(=O)C4CCCNC4)cc3)cnc2N)on1 (stereo not shown) [Compound I-2, 3-(3-(3-methylthiophen-2-yl)isoxazol-5-yl)-5-(4-(piperidin-3-ylsulfonyl)phenyl)pyrazin-2-amine] | 
≤ 5 | Nc1ncc(-c2ccc(S(=O)(=O)C3CCCNC3)cc2)nc1-c1cc(-c2cccs2)no1 (stereo not shown) [Compound I-3, 5-(4-(piperidin-3-ylsulfonyl)phenyl)-3-(3-(thiophen-2-yl)isoxazol-5-yl)pyrazin-2-amine] | clearance [1]: 3.3 mL/min/kg; Vd [1]: 1 L/kg
≤ 5 | Nc1ncc(-c2ccc(S(=O)(=O)C3CCCNC3)cc2)nc1-c1cc(-c2ccc(O)cc2)no1 (stereo not shown) [Compound I-4, 4-(5-(3-amino-6-(4-(piperidin-3-ylsulfonyl)phenyl)pyrazin-2-yl)isoxazol-3-yl)phenol] | 
≤ 5 | CNCc1ccc(-c2cc(-c3nc(-c4ccc(S(=O)(=O)C5CCCNC5)cc4)cnc3N)on2)cc1 (stereo not shown) [Compound I-5, 3-(3-(4-((methylamino)methyl)phenyl)isoxazol-5-yl)-5-(4-(piperidin-3-ylsulfonyl)phenyl)pyrazin-2-amine] | 
≤ 5 | Nc1ncc(-c2ccc(S(=O)(=O)C3CCCNC3)cc2)nc1-c1cc(-c2ccc(CNC3CCOCC3)cc2)no1 (stereo not shown) [Compound I-6, 5-(4-(piperidin-3-ylsulfonyl)phenyl)-3-(3-(4-(((tetrahydro-2H-pyran-4-yl)amino)methyl)phenyl)isoxazol-5-yl)pyrazin-2-amine] | 
≤ 5 | Nc1ncc(-c2ccc(S(=O)(=O)[C@@H]3CCCNC3)cc2)nc1-c1cc(-c2ccc([C@@H]3COCCN3)cc2)no1 [Compound I-7, 3-(3-(4-((R)-morpholin-3-yl)phenyl)isoxazol-5-yl)-5-(4-((R)-piperidin-3-ylsulfonyl)phenyl)pyrazin-2-amine] | 
≤ 5 | Nc1ncc(-c2ccc(S(=O)(=O)C3CCCNC3)cc2)nc1-c1cc(-c2ccsc2)no1 (stereo not shown) [Compound I-8, 5-(4-(piperidin-3-ylsulfonyl)phenyl)-3-(3-(thiophen-3-yl)isoxazol-5-yl)pyrazin-2-amine] | 
≤ 5 | Nc1ncc(-c2ccc(S(=O)(=O)C3CCCNC3)cc2)nc1-c1cc(-c2nccs2)no1 (stereo not shown) [Compound I-9, 5-(4-(piperidin-3-ylsulfonyl)phenyl)-3-(3-(thiazol-2-yl)isoxazol-5-yl)pyrazin-2-amine] | 
≤ 5 | Cc1ccsc1-c1nnc(-c2nc(-c3ccc(S(=O)(=O)C4CCCNC4)cc3)cnc2N)o1 (stereo not shown) [Compound I-10, 3-(5-(3-methylthiophen-2-yl)-1,3,4-oxadiazol-2-yl)-5-(4-(piperidin-3-ylsulfonyl)phenyl)pyrazin-2-amine] | PK properties (clearance and volume of distribution) compared with similar compounds ([1]; compared to a similar 4-piperidine compound (Compound A)): much lower clearance and volume of distribution; clearance [1]: 9.3 mL/min/kg; Vd [1]: 3 L/kg
≤ 5 | Nc1ncc(-c2ccc(S(=O)(=O)C3CCCNC3)cc2)nc1-c1nnc(-c2sccc2F)o1 (stereo not shown) [Compound I-11, 3-(5-(3-fluorothiophen-2-yl)-1,3,4-oxadiazol-2-yl)-5-(4-(piperidin-3-ylsulfonyl)phenyl)pyrazin-2-amine] | 
≤ 5 | Nc1ncc(-c2ccc(S(=O)(=O)C3CCCNC3)cc2)nc1-c1nnc(-c2cccs2)o1 (stereo not shown) [Compound I-12, 5-(4-(piperidin-3-ylsulfonyl)phenyl)-3-(5-(thiophen-2-yl)-1,3,4-oxadiazol-2-yl)pyrazin-2-amine] | 
≤ 5 | COc1ccsc1-c1nnc(-c2nc(-c3ccc(S(=O)(=O)C4CCCNC4)cc3)cnc2N)o1 (stereo not shown) [Compound I-13, 3-(5-(3-methoxythiophen-2-yl)-1,3,4-oxadiazol-2-yl)-5-(4-(piperidin-3-ylsulfonyl)phenyl)pyrazin-2-amine] | 
≤ 5 | COc1ccccc1-c1nnc(-c2nc(-c3ccc(S(=O)(=O)C4CCCNC4)cc3)cnc2N)o1 (stereo not shown) [Compound I-14, 3-(5-(2-methoxyphenyl)-1,3,4-oxadiazol-2-yl)-5-(4-(piperidin-3-ylsulfonyl)phenyl)pyrazin-2-amine] | clearance [1]: 16 mL/min/kg; Vd [1]: 2 L/kg
